The values that follow come from US11066396B2 (priority 2016, dated 2021).

In test [1] the target is HDAC1 (Homo sapiens (Human), UniProt Q13547). To be noted: read-out: HDAC1 IC50.
The target in test [2] is HDAC8 (Homo sapiens (Human), UniProt Q9BY41). To be noted: read-out: HDAC8 IC50.
Chain of HDAC8 (Q9BY41 whole entry): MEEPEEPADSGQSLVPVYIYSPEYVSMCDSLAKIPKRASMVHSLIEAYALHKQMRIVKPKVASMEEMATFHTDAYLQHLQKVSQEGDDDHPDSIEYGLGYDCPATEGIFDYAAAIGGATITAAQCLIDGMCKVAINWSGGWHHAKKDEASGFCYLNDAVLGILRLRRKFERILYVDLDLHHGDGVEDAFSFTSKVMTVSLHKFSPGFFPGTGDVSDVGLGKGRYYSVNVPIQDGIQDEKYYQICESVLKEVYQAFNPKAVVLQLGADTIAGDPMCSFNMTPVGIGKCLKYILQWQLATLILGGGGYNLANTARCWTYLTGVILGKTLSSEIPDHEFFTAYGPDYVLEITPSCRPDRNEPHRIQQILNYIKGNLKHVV

Chain of HDAC1 (Q13547 whole entry): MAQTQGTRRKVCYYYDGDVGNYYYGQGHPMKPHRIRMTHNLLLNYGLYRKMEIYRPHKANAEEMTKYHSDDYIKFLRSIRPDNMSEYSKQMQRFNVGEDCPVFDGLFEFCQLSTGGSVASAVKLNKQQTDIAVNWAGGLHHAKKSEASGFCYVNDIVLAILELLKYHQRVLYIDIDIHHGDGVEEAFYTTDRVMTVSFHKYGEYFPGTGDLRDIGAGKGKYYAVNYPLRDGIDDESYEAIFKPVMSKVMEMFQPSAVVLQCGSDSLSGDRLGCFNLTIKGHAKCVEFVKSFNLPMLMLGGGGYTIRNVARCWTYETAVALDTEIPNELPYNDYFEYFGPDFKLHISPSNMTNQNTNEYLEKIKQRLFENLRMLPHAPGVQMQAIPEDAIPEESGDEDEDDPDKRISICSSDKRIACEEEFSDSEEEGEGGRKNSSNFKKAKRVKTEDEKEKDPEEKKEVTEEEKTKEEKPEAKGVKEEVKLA

As usually defined, the IC50 is the point on the concentration scale where inhibition reaches its midpoint. On to `O=C(Cn1ccnn1)N(Cc1ccc(-c2noc(C(F)(F)F)n2)cc1)c1cccc(C(F)(F)F)c1` [Example 76, 2-(1H-1,2,3-triazol-1-yl)-N-(4-(5-(trifluoromethyl)-1,2,4-oxadiazol-3-yl)benzyl)-N-(3-(trifluoromethyl)phenyl)acetamide], for which the IC50 stood at 1000 nM in test [1] and 2100 nM in test [2].

On to `Cc1nc(C)n(CC(=O)N(Cc2ccc(-c3noc(C(F)(F)F)n3)cc2)c2cccc(C(F)(F)F)c2)n1` [Example 77, 2-(3,5-dimethyl-1H-1,2,4-triazol-1-yl)-N-(4-(5-(trifluoromethyl)-1,2,4-oxadiazol-3-yl)benzyl)-N-(3-(trifluoromethyl)phenyl)acetamide], for which the IC50 in test [1] turned out to be 1400 nM; in test [2], 3300 nM.

`CC(=O)NCCC(=O)N(Cc1ccc(-c2noc(C(F)(F)F)n2)cc1)c1cccc(C(F)(F)F)c1` [Example 78, 3-acetamido-N-(4-(5-(trifluoromethyl)-1,2,4-oxadiazol-3-yl)benzyl)-N-(3-(trifluoromethyl)phenyl)propanamide]: the IC50 was found to be 890 nM in test [1] and 2300 nM in test [2].

For `O=C(CC1COC1)N(Cc1ccc(-c2noc(C(F)(F)F)n2)cc1)c1cccc(C(F)(F)F)c1` [Example 80, 2-(oxetan-3-yl)-N-(4-(5-(trifluoromethyl)-1,2,4-oxadiazol-3-yl)benzyl)-N-(3-(trifluoromethyl)phenyl)acetamide], the IC50 in test [1] was 1600 nM; in test [2], 2800 nM.

Take `O=C(CN1CCS(=O)(=O)CC1)N(Cc1ccc(-c2noc(C(F)(F)F)n2)cc1)c1cccc(C(F)(F)F)c1` [Example 81, 2-(1,1-dioxidothiomorpholino)-N-(4-(5-(trifluoromethyl)-1,2,4-oxadiazol-3-yl)benzyl)-N-(3-(trifluoromethyl)phenyl)acetamide]: the IC50 in test [1] amounted to 1300 nM; in test [2], 4900 nM.

With `CN(C)CC(=O)N(Cc1ccc(-c2noc(C(F)(F)F)n2)cc1)c1cccc(C(F)(F)F)c1` [Example 83, 2-(dimethylamino)-N-(4-(5-(trifluoromethyl)-1,2,4-oxadiazol-3-yl)benzyl)-N-(3-(trifluoromethyl)phenyl)acetamide], the IC50 in test [1] worked out at 1200 nM; in test [2], 3500 nM.

In the case of `O=C(C1CCOCC1)N(Cc1ccc(-c2noc(C(F)(F)F)n2)cc1)c1cccc(C(F)(F)F)c1` [Example 85, N-(4-(5-(trifluoromethyl)-1,2,4-oxadiazol-3-yl)benzyl)-N-(3-(trifluoromethyl)phenyl)tetrahydro-2H-pyran-4-carboxamide], the IC50 in test [1] is 1200 nM; in test [2], 2300 nM.

In the case of `COCCn1nc(C(=O)N(Cc2ccc(-c3noc(C(F)(F)F)n3)cc2)c2cccc(C(F)(F)F)c2)ccc1=O` [Example 86, 1-(2-methoxyethyl)-6-oxo-N-(4-(5-(trifluoromethyl)-1,2,4-oxadiazol-3-yl)benzyl)-N-(3-(trifluoromethyl)phenyl)-1,6-dihydropyridazine-3-carboxamide], the IC50 in test [1] stood at 1200 nM; in test [2], 3300 nM.

On to `Cn1nc(C(=O)N(Cc2ccc(-c3noc(C(F)(F)F)n3)cc2)c2cccc(C(F)(F)F)c2)ccc1=O` [Example 88, 1-methyl-6-oxo-N-(4-(5-(trifluoromethyl)-1,2,4-oxadiazol-3-yl)benzyl)-N-(3-(trifluoromethyl)phenyl)-1,6-dihydropyridazine-3-carboxamide], for which the IC50 in test [1] stood at 940 nM; in test [2], 3000 nM.

In the case of `O=C(CCn1cncn1)N(Cc1ccc(-c2noc(C(F)(F)F)n2)cc1)c1cccc(C(F)(F)F)c1` [Example 89, 3-(1H-1,2,4-triazol-1-yl)-N-(4-(5-(trifluoromethyl)-1,2,4-oxadiazol-3-yl)benzyl)-N-(3-(trifluoromethyl)phenyl)propanamide], the IC50 in test [1] was found to be 1100 nM; in test [2] it was 2000 nM.

`CC(C)C(=O)N1CCC(C(=O)N(Cc2ccc(-c3noc(C(F)(F)F)n3)cc2)c2cccc(C(F)(F)F)c2)CC1` [Example 90, 1-isobutyryl-N-(4-(5-(trifluoromethyl)-1,2,4-oxadiazol-3-yl)benzyl)-N-(3-(trifluoromethyl)phenyl)piperidine-4-carboxamide]: the IC50 in test [1] was determined as 1400 nM; in test [2], 2500 nM.

Take `CC(C)(C)OC(=O)N(Cc1ccc(-c2noc(C(F)(F)F)n2)cn1)c1cccc(F)c1` [Example 91, tert-butyl (3-fluorophenyl)((5-(5-(trifluoromethyl)-1,2,4-oxadiazol-3-yl)pyridin-2-yl)methyl)carbamate]: the IC50 amounted to 1300 nM in test [1] and 19000 nM in test [2].

As for `CN1CCN(CC(=O)N(Cc2ccc(-c3noc(C(F)(F)F)n3)cc2)c2cccc(C(F)(F)F)c2)CC1` [Example 93, 2-(4-methylpiperazin-1-yl)-N-(4-(5-(trifluoromethyl)-1,2,4-oxadiazol-3-yl)benzyl)-N-(3-(trifluoromethyl)phenyl)acetamide], the IC50 in test [1] came to 990 nM; in test [2], 2200 nM.

Turning to `O=C(Cc1cnccn1)N(Cc1ccc(-c2noc(C(F)(F)F)n2)cc1)c1cccc(C(F)(F)F)c1` [Example 94, 2-(pyrazin-2-yl)-N-(4-(5-(trifluoromethyl)-1,2,4-oxadiazol-3-yl)benzyl)-N-(3-(trifluoromethyl)phenyl)acetamide], the IC50 is 1400 nM in test [1] and 2300 nM in test [2].

For `Cn1ccc(CN(Cc2ccc(-c3noc(C(F)(F)F)n3)cc2)c2cccc(C(F)(F)F)c2)n1` [Example 96, N-((1-methyl-1H-pyrazol-3-yl)methyl)-3-(trifluoromethyl)-N-(4-(5-(trifluoromethyl)-1,2,4-oxadiazol-3-yl)benzyl)aniline], the IC50 came out at 2400 nM in test [1] and 30000 nM in test [2].

For the compound `O=C(Cn1cnc2ccccc21)N(Cc1ccc(-c2noc(C(F)(F)F)n2)cc1)c1cccc(C(F)(F)F)c1` [Example 98, 2-(1H-benzo[d]imidazol-1-yl)-N-(4-(5-(trifluoromethyl)-1,2,4-oxadiazol-3-yl)benzyl)-N-(3-(trifluoromethyl)phenyl)acetamide], the figures for the IC50 in test [1] and in test [2] were 4200 nM and 2300 nM, respectively.

For `Cc1nc2ccc(F)cc2n1Cc1ccc(-c2noc(C(F)(F)F)n2)cc1F` [Example 99, 3-(3-fluoro-4-((6-fluoro-2-methyl-1H-benzo[d]imidazol-1-yl)methyl)phenyl)-5-(trifluoromethyl)-1,2,4-oxadiazole], the IC50 is 1900 nM in test [1] and 5900 nM in test [2].

With `CN(C)c1cccc(COc2cc(-c3noc(C(F)(F)F)n3)ccn2)n1` [Example 101, N,N-dimethyl-6-(((4-(5-(trifluoromethyl)-1,2,4-oxadiazol-3-yl)pyridin-2-yl)oxy)methyl)pyridin-2-amine], the IC50 came to 20000 nM in test [1] and 17000 nM in test [2].

In the case of `O=C1CC[C@@H](c2nc3ccccc3o2)N1c1ccc(-c2noc(C(F)(F)F)n2)cc1` [Example 104, (S)-5-(benzo[d]oxazol-2-yl)-1-(4-(5-(trifluoromethyl)-1,2,4-oxadiazol-3-yl)phenyl)pyrrolidin-2-one], the IC50 in test [1] is 120 nM; in test [2], 440 nM.

Regarding `Cn1c([C@@H]2CCC(=O)N2c2ccc(-c3noc(C(F)(F)F)n3)cc2F)nc2ccccc21` [Example 107, (S)-1-(2-fluoro-4-(5-(trifluoromethyl)-1,2,4-oxadiazol-3-yl)phenyl)-5-(1-methyl-1H-benzo[d]imidazol-2-yl)pyrrolidin-2-one], the IC50 in test [1] was found to be 300 nM; in test [2] it was 2200 nM.

For the compound `CNc1ccccc1NC(=O)[C@@H]1CCC(=O)N1c1ccc(-c2noc(C(F)(F)F)n2)cc1` [Example 109, (S)-N-(2-(methylamino)phenyl)-5-oxo-1-(4-(5-(trifluoromethyl)-1,2,4-oxadiazol-3-yl)phenyl)pyrrolidine-2-carboxamide], the IC50 turned out to be 1000 nM in test [1] and 2300 nM in test [2].

For the compound `O=C1CC[C@@H](c2nc(-c3cccnc3)no2)N1c1ccc(-c2noc(C(F)(F)F)n2)cc1` [Example 113, (S)-5-(3-(pyridin-3-yl)-1,2,4-oxadiazol-5-yl)-1-(4-(5-(trifluoromethyl)-1,2,4-oxadiazol-3-yl)phenyl)pyrrolidin-2-one], the IC50 in test [1] amounted to 130 nM; in test [2], 410 nM.

As for `O=C1CC[C@@H](c2nc(-c3ccncc3)no2)N1c1ccc(-c2noc(C(F)(F)F)n2)cc1` [Example 114, (S)-5-(3-(pyridin-4-yl)-1,2,4-oxadiazol-5-yl)-1-(4-(5-(trifluoromethyl)-1,2,4-oxadiazol-3-yl)phenyl)pyrrolidin-2-one], the figures for the IC50 in test [1] and in test [2] were 82 nM and 270 nM, respectively.

As to `O=C1CCC(c2ccccc2)N1c1ccc(-c2noc(C(F)(F)F)n2)cc1` (centres unmarked) [Example 115, 5-phenyl-1-(4-(5-(trifluoromethyl)-1,2,4-oxadiazol-3-yl)phenyl)pyrrolidin-2-one], the results for the IC50 in test [1] and in test [2] were 1000 nM and 920 nM, respectively.

As for `O=C1CCC(c2ccc(Cl)cc2)N1c1ccc(-c2noc(C(F)(F)F)n2)cc1F` (centres unmarked) [Example 119, 5-(4-chlorophenyl)-1-(2-fluoro-4-(5-(trifluoromethyl)-1,2,4-oxadiazol-3-yl)phenyl)pyrrolidin-2-one], the IC50 came out at 720 nM in test [1] and 1300 nM in test [2].

As for `Cc1noc([C@H]2CCCCN2c2cc(F)c(-c3noc(C(F)(F)F)n3)cc2F)n1` [Example 121, (R)-3-(2,5-difluoro-4-(2-(3-methyl-1,2,4-oxadiazol-5-yl)piperidin-1-yl)phenyl)-5-(trifluoromethyl)-1,2,4-oxadiazole], the IC50 in test [1] was found to be 26000 nM; in test [2] it was 29000 nM.

Turning to `Cc1noc([C@@H]2CCC(=O)N2c2ccc(-c3noc(C(F)(F)F)n3)cc2F)n1` [Example 123, (S)-1-(2-fluoro-4-(5-(trifluoromethyl)-1,2,4-oxadiazol-3-yl)phenyl)-5-(3-methyl-1,2,4-oxadiazol-5-yl)pyrrolidin-2-one], the IC50 in test [1] was determined as 1000 nM; in test [2], 5200 nM.

Turning to `CC(C)(C)OC(=O)[C@@H]1CCC(=O)N1c1ccc(-c2noc(C(F)(F)F)n2)cc1F` [Example 125, tert-butyl (S)-1-(2-fluoro-4-(5-(trifluoromethyl)-1,2,4-oxadiazol-3-yl)phenyl)-5-oxopyrrolidine-2-carboxylate], the IC50 in test [1] is 430 nM; in test [2], 6200 nM.
